From patent publication US11096985B2, “Antimicrobial peptides, their variants and uses” (priority 2015, dated 2021)
Where a SMILES comes first, the peptide text is derived from it. [ ]: non-standard residue; d: D form.

What was measured:
[1] = system: clinical strains of Escherichia coli; experiment: MIC, clinical strains of E. coli; assay type: cell-based; set-up: unit: μg/ml; conditions: microdilution, Muller Hinton broth-cation adjusted, 0.02% BSA, 0.2% acetic acid
Method in brief: (§1)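 MIC = lowest peptide concentration showing no visual growth after 20–24 h at 37° C. Range 0.125–128 μg/ml; bacteria at 5.0×10^5 cfu/ml in MH broth, polypropylene microdilution format; yeasts in potato dextrose broth.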

[2] = system: clinical strains of Klebsiella pneumoniae; experiment: MIC, clinical strains of K. pneumoniae; assay type: cell-based; set-up: unit: μg/ml; conditions: microdilution, Muller Hinton broth-cation adjusted, 0.02% BSA, 0.2% acetic acid
Method in brief: as §1

[3] = system: clinical strains of Pseudomonas aeruginosa; experiment: MIC, clinical strains of P. aeruginosa; assay type: cell-based; set-up: unit: μg/ml; conditions: microdilution, Muller Hinton broth-cation adjusted, 0.02% BSA, 0.2% acetic acid
Method in brief: as §1

[4] = system: clinical strains of Serratia marcescens; experiment: MIC, clinical strains of Serratia marcescens; assay type: cell-based; set-up: unit: µg/mL; conditions: microdilution, Muller Hinton broth-cation adjusted, 0.02% BSA, 0.2% acetic acid
Method in brief: as §1

[5] = system: clinical strains of Proteus mirabilis; experiment: MIC, clinical strains of Proteus mirabilis; assay type: cell-based; set-up: unit: µg/mL; conditions: microdilution, Muller Hinton broth-cation adjusted, 0.02% BSA, 0.2% acetic acid
Method in brief: as §1

[6] = system: clinical strains of Enterobacter cloacae; experiment: MIC, clinical strains of Enterobacter cloacae; assay type: cell-based; set-up: unit: μg/ml; conditions: microdilution, Muller Hinton broth-cation adjusted, 0.02% BSA, 0.2% acetic acid
Method in brief: as §1

[7] = system: clinical strains of Staphylococcus aureus; experiment: MIC, clinical strains of S. aureus; assay type: cell-based; set-up: unit: μg/ml; conditions: microdilution, Muller Hinton broth-cation adjusted, 0.02% BSA, 0.2% acetic acid
Method in brief: as §1

[8] = system: clinical strains of Streptococcus pneumoniae; experiment: MIC, clinical strains of Streptococcus pneumoniae; assay type: cell-based; set-up: unit: µg/mL; conditions: microdilution, Muller Hinton broth-cation adjusted, 0.02% BSA, 0.2% acetic acid
Method in brief: as §1

[9] = system: clinical strains of Acinetobacter baumannii; experiment: MIC, clinical strains of Acinetobacter baumannii; assay type: cell-based; conditions: microdilution, Muller Hinton broth-cation adjusted, 0.02% BSA, 0.2% acetic acid
Method in brief: as §1

[10] = system: clinical strains of Acinetobacter johnsonii; assay type: cell-based; conditions: Acinetobacter johnsonii clinical strain 1; microdilution, Muller Hinton broth-cation adjusted, 0.02% BSA, 0.2% acetic acid
Method: Minimum inhibition concentrations (MICs) were determined against Escherichia coli (ATCC 25922), Staphylococcus aureus (ATCC 25923), Klebsiella pneumoniae (ATCC 10031) and Pseudomonas aeruginosa (ATCC 27853). Also clinical strains of E. coli, K. pneumoniae, E. cloacae, P. aeruginosa, Serratia marcescens, Proteus mirabilis, S. pneumoniae, Acinetobacter baumannii, A. johnsonii and S. aureus were used for MICs assays. Additionally, clinical strains of yeast including Candida albicans, C. glabrata, C. parapsilosis and C. quillermondiae were used. The susceptibility of these microorganisms to Chain peptides were determined using micro broth dilution assay. Colonies of the respective microorganism from Muller Hinton (MH) agar plates incubated overnight were suspended in MH broth media and final concentration of microorganism was adjusted to 5.0×10^5 cfu/ml. An aliquot of 10 μl of each Chain peptide, or gentamicin, tetracycline as reference antibiotics were added in differing concentrations along with 90 μl of bacterial suspension to 96 well polypropylene plates and incubated at 37° C. for 20 to 24 hours. Concentrations of Chain peptides and reference antibiotics ranged from 0.125 to 128 μg/ml and the MICs were recorded as the lowest concentration with no visual growth of bacteria. Similarly, antifungal MICs were tested in Potato dextrose broth.
Clinical strains of yeasts including Candida albicans, C. glabrata, C. parapsilosis and C. quillermondiae were also tested with the 12 Chain peptides. The minimum inhibitory concentration (MICs) varied between these peptides and are presented in Tables 4a, 4b, 4c and 5a, 5b, 5c. Peptides Chain 105, 201 and 308 are broad spectrum antimicrobials with MICs between 0.5-32 μg/ml against all the bacteria and yeasts tested, except Serratia marcescens and Proteus mirabilis, against which the MICs were between 64-128 μg/ml. Peptide Chain 306 has narrow spectrum activity against E.coli at 1 μg/ml and for the rest of the bacterial strains at >32 μg/ml (FIG. 10).

[11] = system: clinical strains of Candida albicans; experiment: MIC, clinical yeast strains, Candida albicans; assay type: cell-based; set-up: unit: μg/ml
Method in brief: as §1

[12] = system: clinical strains of C. glabrata; experiment: MIC, clinical yeast strains, C. glabrata; assay type: cell-based, Candida glabrata; set-up: unit: μg/ml
Method in brief: as §1

[13] = system: clinical strains of C. parapsilosis; experiment: MIC, clinical yeast strains, C. parapsilosis; assay type: cell-based, Candida parapsilosis; set-up: unit: μg/ml
Method in brief: as §1

[14] = system: clinical strains of C. quillermondiae; experiment: MIC, clinical yeast strains, C. quillermondiae; assay type: cell-based; conditions: C. quillermondiae clinical yeast strain 1
Method in brief: as §1

Measured: Minimum inhibitory concentration

CC(C)C[C@@H](NC(=O)[C@H](N)CCCNC(=N)N)C(=O)N[C@H](CCCCN)C(=O)N[C@H](CCCNC(=N)N)C(=O)N[C@H](Cc1c[nH]c2ccccc12)C(=O)N[C@H](CCCNC(=N)N)C(=O)N[C@H](CC(C)C)C(=O)N[C@H](Cc1ccccc1)C(=O)N[C@H](CCCNC(=N)N)C(=O)N[C@H](CCCCN)C(=O)N[C@H](CCCNC(=N)N)C(=O)O [Chain306D] (H-[dR][dL][dK][dR][dW][dR][dL][dF][dR][dK][dR]-OH)
1: [1]; Escherichia coli clinical strain 1
>128: [2]; Klebsiella pneumoniae clinical strain 2 | [2]; Klebsiella pneumoniae clinical strain 3 | [3]; Pseudomonas aeruginosa clinical strain 2 | [3]; Pseudomonas aeruginosa clinical strain 4 | [4]; Serratia marcescens clinical strain 1 | [4]; Serratia marcescens clinical strain 2 | [4]; Serratia marcescens clinical strain 3 | [4]; Serratia marcescens clinical strain 4 | [4]; Serratia marcescens clinical strain 5 | [5]; Proteus mirabilis clinical strain 1 | [5]; Proteus mirabilis clinical strain 2 | [5]; Proteus mirabilis clinical strain 3 | [5]; Proteus mirabilis clinical strain 4 | [5]; Proteus mirabilis clinical strain 5
64: [2]; Klebsiella pneumoniae clinical strain 4 | [2]; Klebsiella pneumoniae clinical strain 5 | [6]; Enterobacter cloacae clinical strain 1 | [6]; Enterobacter cloacae clinical strain 2 | [8]; Streptococcus pneumoniae clinical strain 1 | [8]; Streptococcus pneumoniae clinical strain 2 | [8]; Streptococcus pneumoniae clinical strain 3 | [8]; Streptococcus pneumoniae clinical strain 5
128: [2]; Klebsiella pneumoniae clinical strain 1 | [3]; Pseudomonas aeruginosa clinical strain 1 | [3]; Pseudomonas aeruginosa clinical strain 3 | [3]; Pseudomonas aeruginosa clinical strain 5 | [8]; Streptococcus pneumoniae clinical strain 4
4: [13]; C. parapsilosis clinical yeast strain 4 | [14]
32: [6]; Enterobacter cloacae clinical strain 3 | [7]; Staphylococcus aureus clinical strain 2 | [7]; Staphylococcus aureus clinical strain 3 | [9]; Acinetobacter baumannii clinical strain 2 | [12]; C. glabrata clinical yeast strain 4
2: [1]; Escherichia coli clinical strain 2 | [1]; Escherichia coli clinical strain 3 | [1]; Escherichia coli clinical strain 4 | [1]; Escherichia coli clinical strain 5
8: [7]; Staphylococcus aureus clinical strain 5 | [9]; Acinetobacter baumannii clinical strain 5 | [11]; Candida albicans clinical yeast strain 2 | [11]; Candida albicans clinical yeast strain 3 | [12]; C. glabrata clinical yeast strain 1 | [12]; C. glabrata clinical yeast strain 2 | [13]; C. parapsilosis clinical yeast strain 1
16: [6]; Enterobacter cloacae clinical strain 4 | [6]; Enterobacter cloacae clinical strain 5 | [7]; Staphylococcus aureus clinical strain 1 | [7]; Staphylococcus aureus clinical strain 4 | [9]; Acinetobacter baumannii clinical strain 1 | [9]; Acinetobacter baumannii clinical strain 3 | [9]; Acinetobacter baumannii clinical strain 4 | [10] | [11]; Candida albicans clinical yeast strain 1 | [11]; Candida albicans clinical yeast strain 4 | [11]; Candida albicans clinical yeast strain 5 | [12]; C. glabrata clinical yeast strain 3 | [13]; C. parapsilosis clinical yeast strain 2 | [13]; C. parapsilosis clinical yeast strain 3
